# “Also recorded” adds a separate entry of the source.
# Columns and labels:
# [1] = test system: male ICR mice; assay: Elevated plus maze (EPM) test, intraperitoneal injection; type: in vivo, mouse; details: for Open-arm residence times and entries compared with BAF: Tables 3 and 4, statistical differences at a low dose; for Efficacy compared with BAF: at low doses; for Closed arm number of entries / Closed arm residence time / Open arm number of entries / Open arm residence time / Open arm/closed arm frequency ratio / Open arm/closed arm time ratio: mice, intraperitoneal, 5 min before entering the maze
# Description: The active ingredient used in the following pharmacological experiment, the compound shown in Formula (I) of the present application, is the final product in Example 1 of the present application, namely (1R,6S,9R)6,10,10-trimethyl-2-(4,4,4-trifluorobutyl)-11-oxatricyclo [7.2.1.0^1,6]dodec-2-ene (hereinafter referred to as Compound 2). Compound 2 and an excipient PVP (povidone K30) were mixed in an ethanol solution in a mass ratio of 1:15, spin-dried, and prepared into a preparation form of Compound 2 (the following Compound 2 refers to the preparation form of Compound 2). The preparation form of which the active ingredient was 4-butyl-α-agarofuran (BAF for short) was used as a positive drug, a preparation method for this preparation was the same as that of the preparation of Compound 2, and the following BAF refers to this preparation of BAF. PVP was a blank control. In addition, the administration dose was calculated according to a crude drug.
# This model is one of the most commonly used animal models in the research of antianxiety drugs. The elevated plus maze is composed of an open arm (30×5×0.5 cm) and an closed arm (30×8×15 cm) that are crossed in a positive cross shape, and the instrument is suspended 50 cm above the ground. Due to the narrowness, suspension, and brightness of the open arm, there may be internal “fear” or conflict in the open arm, and on the contrary, it more complies with the nature of rodents in the closed arm. 5 min after administration, a mouse is placed in the center of the maze, and its head faces to the open arm. Open-arm and closed-arm entries and residence times in both arms during the experimental period (usually 5 min) are recorded respectively. The percentages of the open arm entries and the open arm residence times respectively accounting for the total entries (sum of the open arm and closed arm entries) and the total time (sum of the open arm and closed arm residence times) are calculated, as an indicator for evaluating the anxiety. Generally speaking, a drug is considered to have antianxiety effects in the case that the open arm cumulative residence time is prolonged without reducing the open arm and closed arm entries.
# The experiment used male Institute of Cancer Research (ICR) mice (purchased from Beijing Weitong Lihua Experimental Animal Technology Co., Ltd.), the weight was 18-20 g, the mice were randomly divided into 7 groups according to the weight, and there were 13 mice in each group. Grip adaptation training was conducted on the mice before the experiment. Before the experiment, the mice were fasted for 12 hours. It was administered by an intraperitoneal injection mode. 4-butyl-α-agarofuran (BAF for short) was used as a positive drug, and PVP was a blank control. The specific grouping and disposal modes are as follows:
# During detection, after intraperitoneal injection of BAF/Compound 2, each mouse was immediately placed in an open animal box and allowed to move freely for 5 min, then the mouse was placed on a central platform of the elevated plus maze, its head faced to a fixed open arm. The detection was started, timed for 5 min, and recorded with a supermaze software by using a camera head. After all the experiments were completed, the residence times (s) of the mice in the open arm and the closed arm, the open arm and closed arm entries, and the time ratios and frequency ratios of the open arm and closed arm entries were recorded with the supermaze software. 1 was added to the number of entry arms with a latency of 0.
# [2] = Plasma pharmacokinetics after intraperitoneal injection in mouse (UPLC-MS/MS); type: in vivo; details: for AUC(0-t) / half-life / Cmax: male, ICR; for AUC(0-t) / half-life: plasma; for AUC(0-t): 10 mg/kg, according to the above method, read-out: AUC(0-t); for AUC(0-t) / half-life / Pharmacokinetic properties compared with BAF: mouse; for AUC(0-t) / Pharmacokinetic properties compared with BAF: IP; for half-life / Cmax: IP 10 mg/kg; for Cmax: mouse plasma, prototype drug
# Description: Positive control drug 4-butyl-α-agarofuran preparation (BAF) and Compound 2 preparation were administered intraperitoneally at a dose of 10 mg/kg/10 ml (calculated according to the crude drug), and a suspension was prepared by ultrasonic grinding with double distilled water. Male ICR mice, with a weight of 21-24 g, were purchased from SPF (Beijing) Biotechnology Co., Ltd.
# 12 mice were randomly divided into 4 groups, there were 3 parallel cross blood sampling points in each group (5 points in groups 1 and 3, and 6 points in groups 2 and 4), it was administered according to the weight, and blood was collected from the orbital venous plexus at 5 min, 10 min, […], 30 min, 1 h, 2 h, 4 h, 6 h, 8 h, 12 h, and 24 h after administration. The bloods at each time point were collected into Eppendorf (EP) tubes anticoagulated with heparin, and placed on ice and centrifuged at 8000 r/min×5 min, to separate plasma for later use.
# 20 μl of mouse blank plasma was taken, 55 μl of acetonitrile containing an internal standard solution (200 ng/mL, BAF crude drug and Compound 2 crude drug are mutual internal standards, namely BAF was used as the internal standard of Compound 2, and Compound 2 was used as the internal standard of BAF, similarly hereinafter) is added, 5 μl of a methanol working solution of the compound BAF or Compound 2 with different concentrations was respectively added and mixed uniformly, so that its final plasma concentrations were 0.2, 0.5, 2, 5, 10, 25, 50, 100, 200, 500, 750, and 1000 ng/ml respectively, centrifugation was conducted twice at a high speed of 13000 r/min×5 min, and 5 μl of a supernatant was taken for UPLC-MS/MS analysis.
# 10 μL of plasma was taken, 30 μL of acetonitrile containing internal standard solution (100 ng/mL) was added to precipitate proteins, after the material was centrifuged twice at a high speed of 13000 r/min×5 min, 5 μl of a supernatant was taken for UPLC-MS/MS analysis.
# Chromatographic column: Symmetry C8 (2.1 mm×50 mm, 3.5 μm), column temperature: 25° C., mobile phase: acetonitrile (0.1% formic acid): water (0.1% formic acid)=70:30 gradient elution, flow rate: 0.2 mL/min, Parallel Reaction Monitoring (PRM) detection, BAF: m/z 263.2→245.2; and Compound 2: m/z 317.2→299.2.
Compound,Open-arm residence times and entries compared with BAF [1],Efficacy compared with BAF [1],Closed arm number of entries ([1]; 2.4 mg/kg),Closed arm residence time ([1]; 2.4 mg/kg),Open arm number of entries ([1]; 2.4 mg/kg),Open arm residence time ([1]; 2.4 mg/kg),Open arm/closed arm frequency ratio ([1]; 2.4 mg/kg),Open arm/closed arm time ratio ([1]; 2.4 mg/kg),Closed arm number of entries ([1]; 4.8 mg/kg),Closed arm residence time ([1]; 4.8 mg/kg),Open arm number of entries ([1]; 4.8 mg/kg),Open arm residence time ([1]; 4.8 mg/kg),Open arm/closed arm frequency ratio ([1]; 4.8 mg/kg),Open arm/closed arm time ratio ([1]; 4.8 mg/kg),Closed arm number of entries ([1]; 9.6 mg/kg),Closed arm residence time ([1]; 9.6 mg/kg),Open arm number of entries ([1]; 9.6 mg/kg),Open arm residence time ([1]; 9.6 mg/kg),Open arm/closed arm frequency ratio ([1]; 9.6 mg/kg),Open arm/closed arm time ratio ([1]; 9.6 mg/kg),other results
"CC1(C)O[C@]23C[C@H]1CC[C@]2(C)CCC=C3CCCCC(F)(F)F [Compound 6, (1R,6S,9R)6,10,10-trimethyl-2-(5,5,5-trifluoropentyl)-11-oxatricyclo [7.2.1.0^1,6]dodec-2-ene]",prolonged,better efficacy,11.00 ± 0.83,129.22 ± 9.33 s,9.11 ± 0.54,126.19 ± 8.01 s,0.86 ± 0.07,0.98 ± 0.15,10.00 ± 0.60,154.33 ± 7.85 s,8.88 ± 0.55,116.53 ± 6.42 s,0.90 ± 0.05,0.78 ± 0.07,8.56 ± 1.19,140.04 ± 15.48 s,8.78 ± 1.53,111.29 ± 11.05 s,1.06 ± 0.13,0.91 ± 0.17,AUC(0-t) [2]: 142 ng·h/mL; half-life [2]: 1.39 h; Cmax [2]: 342 ng/mL; Pharmacokinetic properties compared with BAF [2]: superior to BAF; also recorded: better pharmacokinetic properties
"[2H]C1[C@H]2CC[C@]3(C)CC([2H])([2H])C=C(CCCC(F)(F)F)[C@@]13OC2(C)C (stereo partly drawn) [Compound 8, (1R,6R,9R)6,10,10-trimethyl-2-(4,4,4-trifluorobutyl)-4,4,10-trideuterium-11-oxatricyclo [7.2.1.0^1,6]dodec-2-ene]",prolonged,better efficacy,10.86 ± 1.30,126.36 ± 11.90 s,9.43 ± 0.78,134.90 ± 9.73 s,0.93 ± 0.10,1.20 ± 0.26,10.00 ± 0.63,147.85 ± 10.01 s,9.10 ± 0.87,117.97 ± 8.25 s,0.93 ± 0.10,0.88 ± 0.14,10.00 ± 1.20,139.21 ± 14.30 s,8.70 ± 0.94,112.96 ± 9.69 s,0.90 ± 0.07,0.93 ± 0.16,AUC(0-t) [2]: 148 ng·h/mL; half-life [2]: 1.41 h; Cmax [2]: 350 ng/mL; Pharmacokinetic properties compared with BAF [2]: superior to BAF; also recorded: better pharmacokinetic properties
